The record followed here is patent EP4603105A1, “PHARMACEUTICAL COMPOSITION CONTAINING CYCLIC COMPOUND HAVING SELECTIVE KRAS INHIBITORY EFFECT AGAINST HRAS AND NRAS” (CHUGAI SEIYAKU KABUSHIKI KAISHA, priority 2022, dated 2024).

In experiment [1] the target is GDP-bound KRAS wild-type protein (Homo sapiens, UniProt P01116). Nature of the experiment: Binding to KRAS by surface plasmon resonance (SPR), dissociation constant KD. To be noted: Single Cycle Kinetics. In outline:
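GDP-bound biotin-Avi RAS captured at ~100–300 RU, 30°C, pH 7.4 HBS containing 10 µM GDP, 10 mM MgCl2, 1 mM DTT, 0.01% Tween 20 and 4% DMSO. KD by 1:1 fitting.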

Experiment [2] concerns the target GDP-bound NRAS wild-type protein (Homo sapiens, UniProt P01111). The experiment can be described thus: Binding to NRAS by surface plasmon resonance (SPR), KD and KD ratio to KRAS. To be noted: ratio of KD for GDP-bound NRAS wild-type protein to KD for KRAS. In outline:
(§1)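 SPR, 30°C: Avi-biotin RAS·GDP captured via Biotin CAPture (~100–300 RU); running buffer HBS pH 7.4, 1 mM DTT, 10 mM MgCl2, 0.01% Tween 20, 10 µM GDP, 4% DMSO. Single-cycle kinetics, 100 µL/min, 75 s injections; 1:1 model → KD.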

A further experiment addresses HRAS wild-type protein (Homo sapiens, UniProt P01112). Nature of the experiment: Binding to HRAS by surface plasmon resonance (SPR), KD and KD ratio to KRAS. To be noted: ratio of KD for HRAS wild-type protein to KD for KRAS. In outline: as §1
The test system of experiment [3] is human lung cancer strain NCI-H441. Nature of the experiment: NCI-H441 cell proliferation inhibitory activity (CellTiter-Glo, 4 days). The class given is cell-based. The note with it: NCI-H441 cells, 4 days, read-out: NCl-H441 IC50. The gist of the method:
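Proliferation was scored by […] measured after the reagent was added to cultures kept at 37°C in 5% carbon dioxide.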

Sequence of GDP-bound NRAS wild-type protein (P01111 whole entry): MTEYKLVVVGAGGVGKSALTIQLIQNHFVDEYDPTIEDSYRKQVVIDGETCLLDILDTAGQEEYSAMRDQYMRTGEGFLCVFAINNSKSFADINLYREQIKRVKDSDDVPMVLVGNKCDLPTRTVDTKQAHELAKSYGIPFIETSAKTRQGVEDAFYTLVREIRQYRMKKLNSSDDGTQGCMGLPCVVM
Sequence of GDP-bound KRAS wild-type protein (P01116 1-188 isoform P01116-2): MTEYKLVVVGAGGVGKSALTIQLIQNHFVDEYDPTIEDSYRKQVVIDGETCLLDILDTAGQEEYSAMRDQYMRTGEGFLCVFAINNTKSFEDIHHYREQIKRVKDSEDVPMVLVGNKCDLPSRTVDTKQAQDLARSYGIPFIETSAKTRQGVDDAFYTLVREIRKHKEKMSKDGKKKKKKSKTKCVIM
Sequence of HRAS wild-type protein (P01112 whole entry): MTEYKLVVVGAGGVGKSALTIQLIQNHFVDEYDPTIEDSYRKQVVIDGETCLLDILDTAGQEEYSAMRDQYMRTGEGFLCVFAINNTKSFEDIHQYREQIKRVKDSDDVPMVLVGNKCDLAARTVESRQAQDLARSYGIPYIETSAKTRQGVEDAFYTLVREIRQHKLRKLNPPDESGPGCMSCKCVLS

In experiment [1], `CCC[C@H]1C(=O)N[C@@H]([C@@H](C)CC)C(=O)N(C2CC2)CC(=O)N(C)[C@H]2C/C=C\CCN(C2=O)[C@@H](Cc2ccc(C)cc2)C(=O)N(C)CC(=O)N[C@@H](CCc2ccc(C(F)(F)F)c(OC)c2)C(=O)N2CC[C@H](OC)[C@H]2C(=O)N(C)C2(CCC2)C(=O)N(C)[C@@H](C2CCCC2)C(=O)N(C)[C@H](C(=O)N(C)C)CC(=O)N1C` [PP3245] had a dissociation constant Kd of 0.18 nM. In experiment [2], the “NRAS /KRAS” value was “A (a compound having 10 or more and less than 20 is denoted as A)”. For the same compound, on HRAS wild-type protein, the “HRAS /KRAS” value was “A (a compound having 10 or more and less than 20 is denoted as A)”. The IC50 in experiment [3] is 6.7 nM.
On to `C#CC[C@H]1C(=O)N[C@@H]([C@@H](C)CC)C(=O)N(C2CC2)CC(=O)N(C)[C@H]2C/C=C\CCN(C2=O)[C@@H](Cc2ccc(C(F)(F)F)cc2)C(=O)N(C)CC(=O)N[C@@H](CCc2ccc(C(F)(F)F)c(Cl)c2)C(=O)N2C[C@H](OCC)C[C@H]2C(=O)N(C)C2(CCC2)C(=O)N(C)[C@@H](C2CCCC2)C(=O)N(C)[C@H](C(=O)N(C)C)CC(=O)N1C` [PP3246], for which the affinity in experiment [1], expressed as Kd, was 0.086 nM. Moreover, the “NRAS /KRAS” value in experiment [2] was “A (a compound having 10 or more and less than 20 is denoted as A)”. The “HRAS /KRAS” value on HRAS wild-type protein was “A (a compound having 10 or more and less than 20 is denoted as A)”. Moreover, the IC50 in experiment [3] is 3.8 nM.
Regarding `CCC[C@H]1C(=O)N[C@@H]([C@@H](C)CC)C(=O)N2CCC[C@H]2C(=O)N(C)[C@H]2C/C=C\CCN(C2=O)[C@@H](Cc2ccc(C)cc2)C(=O)N(C)CC(=O)N[C@@H](CCc2ccc(C(F)(F)F)c(OC)c2)C(=O)N2CC[C@H](OC)[C@H]2C(=O)N(C)C2(CCC2)C(=O)N(C)[C@@H](C2CCCC2)C(=O)N(C)[C@H](C(=O)N(C)C)CC(=O)N1C` [PP3247], the dissociation constant (Kd) in experiment [1] turned out to be 0.22 nM. In experiment [2], the “NRAS /KRAS” value is “A (a compound having 10 or more and less than 20 is denoted as A)”. The “HRAS /KRAS” value at HRAS wild-type protein is “B (a compound having 3 or more and less than 10 is denoted as B)”. In addition, the IC50 in experiment [3] was found to be 5.3 nM.
`C#CC[C@H]1C(=O)N[C@@H]([C@@H](C)CC)C(=O)N(C2CC2)CC(=O)N(C)[C@H]2C/C=C\CCN(C2=O)[C@@H](Cc2ccc(C)cc2)C(=O)N(C)CC(=O)N[C@@H](CCc2ccc(C(F)(F)F)c(OC)c2)C(=O)N2C[C@H](OCC)C[C@H]2C(=O)N(C)C2(CCC2)C(=O)N(C)[C@@H](C2CCCC2)C(=O)N(C)[C@H](C(=O)N(C)C)CC(=O)N1C` [PP3248]: the dissociation constant Kd in experiment [1] worked out at 0.078 nM. Also, in experiment [2], the “NRAS /KRAS” value is “A (a compound having 10 or more and less than 20 is denoted as A)”. Besides, at HRAS wild-type protein, the “HRAS /KRAS” value was “A (a compound having 10 or more and less than 20 is denoted as A)”. The IC50 in experiment [3] is 4.5 nM.
For `CCC[C@H]1C(=O)N[C@@H]([C@@H](C)CC)C(=O)N(C)CC(=O)N(C)[C@H]2C/C=C\CCN(C2=O)[C@@H](Cc2ccc(C)cc2)C(=O)N(C)CC(=O)N[C@@H](CCc2ccc(C(F)(F)F)c(OC)c2)C(=O)N2CC[C@H](OC)[C@H]2C(=O)N(C)C2(CCC2)C(=O)N(C)[C@@H](C2CCCC2)C(=O)N(C)[C@H](C(=O)N(C)C)CC(=O)N1C` [PP3249], in experiment [1], binding was put at a Kd of 0.059 nM. Also, the “NRAS /KRAS” value in experiment [2] was “A (a compound having 10 or more and less than 20 is denoted as A)”. Besides, the “HRAS /KRAS” value at HRAS wild-type protein was “B (a compound having 3 or more and less than 10 is denoted as B)”. In addition, the IC50 in experiment [3] amounted to 4.2 nM.
Take `C#CC[C@H]1C(=O)N[C@@H]([C@@H](C)CC)C(=O)N(C2CC2)CC(=O)N(C)[C@H]2C/C=C\CCN(C2=O)[C@@H](Cc2ccc(C)cc2)C(=O)N(C)CC(=O)N[C@@H](CCc2cc(F)c(C(F)(F)F)c(F)c2)C(=O)N2C[C@H](OCC)C[C@H]2C(=O)N(C)C2(CCC2)C(=O)N(C)[C@@H](C2CCCC2)C(=O)N(C)[C@H](C(=O)N(C)C)CC(=O)N1C` [PP3250]: in experiment [1], binding was characterised by a dissociation constant (Kd) of 0.1 nM. The “NRAS /KRAS” value in experiment [2] was “A (a compound having 10 or more and less than 20 is denoted as A)”. Moreover, at HRAS wild-type protein, the “HRAS /KRAS” value is “B (a compound having 3 or more and less than 10 is denoted as B)”. Further, the IC50 in experiment [3] was determined as 2.8 nM.
On to `C#CC[C@H]1C(=O)N[C@@H]([C@@H](C)CC)C(=O)N(C2CC2)CC(=O)N(C)[C@H]2C/C=C\CCN(C2=O)[C@@H](Cc2ccc(C)cc2)C(=O)N(C)CC(=O)N[C@@H](CCc2ccc(C(F)(F)F)c(Cl)c2)C(=O)N2C[C@H](OCC)C[C@H]2C(=O)N(C)C2(CCC2)C(=O)N(C)[C@@H](C2CCCC2)C(=O)N(C)[C@H](C(=O)N(C)C)CC(=O)N1C` [PP3251], for which, in experiment [1], the equilibrium dissociation constant (Kd) was determined as 0.12 nM. Besides, the “NRAS /KRAS” value in experiment [2] was “B (a compound having 3 or more and less than 10 is denoted as B)”. For the same compound, the “HRAS /KRAS” value at HRAS wild-type protein was “B (a compound having 3 or more and less than 10 is denoted as B)”. In experiment [3], the IC50 turned out to be 4.1 nM.
Regarding `C#CC[C@H]1C(=O)N[C@@H]([C@@H](C)CC)C(=O)N2CCC[C@H]2C(=O)N(C)[C@H]2C/C=C\CCN(C2=O)[C@@H](Cc2ccc(C(F)(F)F)cc2)C(=O)N(C)CC(=O)N[C@@H](CCc2ccc(C(F)(F)F)c(OC)c2)C(=O)N2C[C@H](OCC)C[C@H]2C(=O)N(C)C2(CCC2)C(=O)N(C)[C@@H](C2CCCC2)C(=O)N(C)[C@H](C(=O)N(C)C)CC(=O)N1C` [PP3252], binding in experiment [1] was characterised by a dissociation constant (Kd) of 0.082 nM. Besides, the “NRAS /KRAS” value in experiment [2] was “A (a compound having 10 or more and less than 20 is denoted as A)”. Further, the “HRAS /KRAS” value on HRAS wild-type protein was “A (a compound having 10 or more and less than 20 is denoted as A)”. For the same compound, the IC50 in experiment [3] amounted to 4.5 nM.
Compound `C#CC[C@H]1C(=O)N[C@@H]([C@@H](C)CC)C(=O)N2CCC[C@H]2C(=O)N(C)[C@H]2C/C=C\CCN(C2=O)[C@@H](Cc2ccc(C(F)(F)F)cc2)C(=O)N(C)CC(=O)N[C@@H](CCc2cc(F)c(C(F)(F)F)c(F)c2)C(=O)N2C[C@H](OCC)C[C@H]2C(=O)N(C)C2(CCC2)C(=O)N(C)[C@@H](C2CCCC2)C(=O)N(C)[C@H](C(=O)N(C)C)CC(=O)N1C` [PP3253] came in with a Kd in experiment [1] of 0.088 nM. Also, the “NRAS /KRAS” value in experiment [2] was “A (a compound having 10 or more and less than 20 is denoted as A)”. At HRAS wild-type protein, the “HRAS /KRAS” value is “B (a compound having 3 or more and less than 10 is denoted as B)”. For the same compound, the IC50 in experiment [3] was 2.9 nM.
On to `C#CC[C@H]1C(=O)N[C@@H]([C@@H](C)CC)C(=O)N2CCC[C@H]2C(=O)N(C)[C@H]2C/C=C\CCN(C2=O)[C@@H](Cc2ccc(C(F)(F)F)cc2)C(=O)N(C)CC(=O)N[C@@H](CCc2ccc(C(F)(F)F)c(Cl)c2)C(=O)N2C[C@H](OCC)C[C@H]2C(=O)N(C)C2(CCC2)C(=O)N(C)[C@@H](C2CCCC2)C(=O)N(C)[C@H](C(=O)N(C)C)CC(=O)N1C` [PP3254], for which binding in experiment [1] was characterised by a dissociation constant (Kd) of 0.086 nM. Moreover, in experiment [2], the “NRAS /KRAS” value is “A (a compound having 10 or more and less than 20 is denoted as A)”. Moreover, the “HRAS /KRAS” value on HRAS wild-type protein was “B (a compound having 3 or more and less than 10 is denoted as B)”. Further, the concentration for half-maximal inhibition (IC50) in experiment [3] turned out to be 3.6 nM.
For the compound `C#CC[C@H]1C(=O)N[C@@H]([C@@H](C)CC)C(=O)N2CCC[C@H]2C(=O)N(C)[C@H]2C/C=C\CCN(C2=O)[C@@H](Cc2ccc(C)cc2)C(=O)N(C)CC(=O)N[C@@H](CCc2cc(F)c(C(F)(F)F)c(F)c2)C(=O)N2C[C@H](OCC)C[C@H]2C(=O)N(C)C2(CCC2)C(=O)N(C)[C@@H](C2CCCC2)C(=O)N(C)[C@H](C(=O)N(C)C)CC(=O)N1C` [PP3256], the affinity in experiment [1], expressed as Kd, was 0.078 nM. Moreover, the “NRAS /KRAS” value in experiment [2] is “A (a compound having 10 or more and less than 20 is denoted as A)”. On HRAS wild-type protein, the “HRAS /KRAS” value was “A (a compound having 10 or more and less than 20 is denoted as A)”. For the same compound, the half-maximal inhibitory concentration (IC50) in experiment [3] is 4.2 nM.
